# ChEMBL document CHEMBL3826929, “Discovery and Preclinical Evaluation of BMS-711939, an Oxybenzylglycine Based PPARα Selective Agonist” (ACS Med Chem Lett, 2016)
# Assays:
# Mus musculus [1] = test: Increase in HDL cholesterol level in transgenic mouse expressing human ApoA1 at 3 mg/kg administered qd through oral gavage measured after 10 days relative to vehicle control; format: functional
# [2] = Cmax in cynomolgus monkey at 2 mg/kg, po; format: ADME, organism-based, Macaca fascicularis; parameters: dose 2 mg/kg, route oral; conditions: in vivo
# [3] = Half life in Balb/c mouse at 5 mg/kg, iv; format: ADME, organism-based; conditions: in vivo
# Syrian golden hamster [4] = test: Decrease in plasma triglyceride level in high fat-diet fed syrian golden hamster model of dyslipidemia at 3 mg/kg administered qd through oral gavage measured after 21 days by FPLC analysis relative to control; format: functional, Mesocricetus auratus; parameters: scale not given: the % may be the effect or the level left
# Cytochrome P450 2C19 = Cytochrome P450 2C19 (Homo sapiens, UniProt P33261); test: Inhibition of CYP2C19 in human TC5 cells; format: ADME, cell-based
# [5] = Oral bioavailability in dog at 2 mg/kg; format: ADME, organism-based, Canis lupus familiaris; conditions: in vivo
# [6] = target: Nuclear receptor subfamily 1 group I member 2 (Homo sapiens, UniProt O75469); test: Activation of PXR (unknown origin); format: ADME
# Rhesus monkey = test: Cardiovascular toxicity in monkey assessed as change in electrocardiographic effect up to 20 mg/kg administered as single dose by telemetry test; format: organism-based, Macaca mulatta; conditions: in vivo
# [7] = Tmax in Balb/c mouse at 10 mg/kg, po; format: ADME, organism-based; conditions: in vivo
# [8] = Half life in Sprague-Dawley rat at 4 mg/kg, iv; format: ADME, organism-based; conditions: in vivo
# Cytochrome P450 3A4 = Cytochrome P450 3A4 (Homo sapiens, UniProt P08684); test: Inhibition of CYP3A4 (unknown origin); format: ADME
# Mus musculus [9] = test: Decrease in triglyceride level in transgenic mouse expressing human ApoA1 at 50 mg/kg administered qd through oral gavage measured after 10 days relative to vehicle control; format: functional; parameters: scale not given: the % may be the effect or the level left
# Mus musculus [10] = test: Increase in ApoA1 level in transgenic mouse expressing human ApoA1 at 3 mg/kg administered qd through oral gavage measured after 10 days relative to vehicle-treated control; format: functional
# Syrian golden hamster [11] = test: Decrease in liver triglyceride level in high fat-diet fed syrian golden hamster model of dyslipidemia at 10 mg/kg administered qd through oral gavage measured after 21 days by FPLC analysis relative to control; format: functional, Mesocricetus auratus; parameters: scale not given: the % may be the effect or the level left
# Syrian golden hamster [12] = test: Decrease in plasma LDL cholesterol level in high fat-diet fed syrian golden hamster model of dyslipidemia at 1 mg/kg administered qd through oral gavage measured after 21 days by FPLC analysis relative to control; format: functional, Mesocricetus auratus; parameters: scale not given: the % may be the effect or the level left
# [13] = target: Retinoid X receptor (Homo sapiens) (UniProt P28702+P48443+P19793); test: Agonist activity at human RXR by transactivation assay relative to standard compound; format: protein assay
# Mus musculus [14] = test: Increase in HDL cholesterol level in transgenic mouse expressing human ApoA1 at 10 mg/kg administered qd through oral gavage measured after 10 days relative to vehicle control; format: functional
# Mus musculus [15] = test: Increase in HDL cholesterol level in transgenic mouse expressing human ApoA1 at 50 mg/kg administered qd through oral gavage measured after 10 days relative to vehicle control; format: functional
# [16] = Protein binding in cynomolgus monkey plasma; format: ADME, cell-free, Macaca fascicularis; conditions: read-out: PPB
# Cytochrome P450 2C9 [17] = target: T1, Cytochrome P450 2C9 (Homo sapiens, UniProt P11712); test: Inhibition of CYP2C9 (unknown origin); format: ADME
# Syrian golden hamster [18] = test: Decrease in plasma triglyceride level in high fat-diet fed syrian golden hamster model of dyslipidemia at 1 mg/kg administered qd through oral gavage measured after 21 days by FPLC analysis relative to control; format: functional, Mesocricetus auratus; parameters: scale not given: the % may be the effect or the level left
# Mus musculus [19] = test: Decrease in triglyceride level in transgenic mouse expressing human ApoA1 at 10 mg/kg administered qd through oral gavage measured after 10 days relative to vehicle control; format: functional; parameters: scale not given: the % may be the effect or the level left
# Cytochrome P450 2C9 [20] = target: T1, Cytochrome P450 2C9; test: Inhibition of CYP2C9 in human TC5 cells; format: ADME, cell-based
# Cytochrome P450 2D6 = Cytochrome P450 2D6 (Homo sapiens, UniProt P10635); test: Inhibition of CYP2D6 in human TC5 cells; format: ADME, cell-based
# Salmonella typhimurium = test: Genotoxicity in Salmonella typhimurium TA98 up to 5000 ug by Ames test; format: toxicity, organism-based; conditions: salmonella enterica subsp. enterica serovar typhimurium
# [21] = Volume of distribution at steady state in dog at 1 mg/kg, iv; format: ADME, organism-based, Canis lupus familiaris; conditions: in vivo, read-out: Vdss
# [22] = Aqueous solubility of the compound at pH 7.2; format: physicochemical; conditions: buffer
# [23] = AUC (0 to 8 hrs) in cynomolgus monkey at 1 mg/kg, iv; format: ADME, organism-based, Macaca fascicularis; parameters: time < 8 hr, dose 1 mg/kg, route intravenous; conditions: in vivo
# Syrian golden hamster [24] = test: Decrease in liver cholesterol level in high fat-diet fed syrian golden hamster model of dyslipidemia at 10 mg/kg administered qd through oral gavage measured after 21 days by FPLC analysis relative to control; format: functional, Mesocricetus auratus; parameters: scale not given: the % may be the effect or the level left
# [25] = Cmax in dog at 2 mg/kg, po; format: ADME, organism-based, Canis lupus familiaris; parameters: dose 2 mg/kg, route oral; conditions: in vivo
# Mus musculus [26] = test: Decrease in triglyceride level in transgenic mouse expressing human ApoA1 at 3 mg/kg administered qd through oral gavage measured after 10 days relative to vehicle control; format: functional; parameters: scale not given: the % may be the effect or the level left
# [27] = target: Liver X receptor (Homo sapiens) (UniProt Q13133+P55055); test: Agonist activity at human LXR by transactivation assay relative to standard compound; format: protein assay
# Liver X receptor = Liver X receptor (Homo sapiens, UniProt Q13133+P55055); test: Agonist activity at human LXR by transactivation assay; format: protein assay
# [28] = AUC (0 to 8 hrs) in Balb/c mouse at 10 mg/kg, po; format: ADME, organism-based; parameters: dose 10 mg/kg, time < 8 hr, route oral; conditions: in vivo
# [29] = target: Glucocorticoid receptor (Homo sapiens) (UniProt P04150); test: Agonist activity at human GR by transactivation assay relative to standard compound
# [30] = AUC (0 to 8 hrs) in Sprague-Dawley rat at 4 mg/kg, iv; format: ADME, organism-based; parameters: time < 8 hr, dose 4 mg/kg, route intravenous; conditions: in vivo
# [31] = AUC (0 to 8 hrs) in cynomolgus monkey at 2 mg/kg, po; format: ADME, organism-based, Macaca fascicularis; parameters: time < 8 hr, dose 2 mg/kg, route oral; conditions: in vivo
# [32] = Oral bioavailability in Balb/c mouse at 10 mg/kg; format: ADME, organism-based; conditions: in vivo
# Syrian golden hamster [33] = test: Decrease in liver cholesterol level in high fat-diet fed syrian golden hamster model of dyslipidemia at 3 mg/kg administered qd through oral gavage measured after 21 days by FPLC analysis relative to control; format: functional, Mesocricetus auratus; parameters: scale not given: the % may be the effect or the level left
# Syrian golden hamster [34] = test: Decrease in plasma triglyceride level in high fat-diet fed syrian golden hamster model of dyslipidemia at 10 mg/kg administered qd through oral gavage measured after 21 days by FPLC analysis relative to control; format: functional, Mesocricetus auratus; parameters: scale not given: the % may be the effect or the level left
# Homo sapiens = species on record: Homo sapiens; test: Inhibition of sodium channel (unknown origin) assessed as channel block at 10 uM and 4 Hz by electrophysiological method
# T1 sequence (P11712 whole entry): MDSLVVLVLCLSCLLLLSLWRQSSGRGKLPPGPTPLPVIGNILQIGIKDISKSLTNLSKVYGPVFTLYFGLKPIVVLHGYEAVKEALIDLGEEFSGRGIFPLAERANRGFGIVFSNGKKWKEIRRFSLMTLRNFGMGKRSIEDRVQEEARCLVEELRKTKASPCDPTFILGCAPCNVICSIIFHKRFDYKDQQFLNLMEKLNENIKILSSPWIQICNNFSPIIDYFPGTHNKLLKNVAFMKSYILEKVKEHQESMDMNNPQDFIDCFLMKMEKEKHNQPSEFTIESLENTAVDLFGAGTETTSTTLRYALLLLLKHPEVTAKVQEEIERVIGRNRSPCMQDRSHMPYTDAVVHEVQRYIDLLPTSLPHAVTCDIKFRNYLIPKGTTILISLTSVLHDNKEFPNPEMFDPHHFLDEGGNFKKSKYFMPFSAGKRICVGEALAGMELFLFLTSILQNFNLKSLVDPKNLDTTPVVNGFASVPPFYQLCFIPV
# Glucocorticoid receptor (Homo sapiens), sequence (P04150 whole entry): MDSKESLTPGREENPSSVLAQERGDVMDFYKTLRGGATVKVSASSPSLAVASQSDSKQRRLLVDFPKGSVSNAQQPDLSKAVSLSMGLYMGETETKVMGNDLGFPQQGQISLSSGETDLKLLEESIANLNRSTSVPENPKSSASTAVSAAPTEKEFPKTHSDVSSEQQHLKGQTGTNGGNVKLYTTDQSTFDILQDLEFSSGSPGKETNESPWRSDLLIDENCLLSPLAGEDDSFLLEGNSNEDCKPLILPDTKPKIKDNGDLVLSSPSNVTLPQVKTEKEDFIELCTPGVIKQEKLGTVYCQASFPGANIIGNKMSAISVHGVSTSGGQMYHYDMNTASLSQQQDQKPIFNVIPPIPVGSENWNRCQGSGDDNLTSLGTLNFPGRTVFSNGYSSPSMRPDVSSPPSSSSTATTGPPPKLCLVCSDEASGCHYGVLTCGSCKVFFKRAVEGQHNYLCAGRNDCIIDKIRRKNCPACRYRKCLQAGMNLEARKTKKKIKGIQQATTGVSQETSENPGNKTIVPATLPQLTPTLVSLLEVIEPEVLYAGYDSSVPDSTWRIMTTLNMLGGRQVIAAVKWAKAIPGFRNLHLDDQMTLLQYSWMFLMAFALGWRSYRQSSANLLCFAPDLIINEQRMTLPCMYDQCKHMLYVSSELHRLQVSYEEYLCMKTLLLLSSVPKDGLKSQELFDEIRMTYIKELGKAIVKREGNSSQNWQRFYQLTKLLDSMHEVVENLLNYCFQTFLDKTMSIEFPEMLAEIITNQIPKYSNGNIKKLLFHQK
# Cytochrome P450 3A4, sequence (P08684 whole entry): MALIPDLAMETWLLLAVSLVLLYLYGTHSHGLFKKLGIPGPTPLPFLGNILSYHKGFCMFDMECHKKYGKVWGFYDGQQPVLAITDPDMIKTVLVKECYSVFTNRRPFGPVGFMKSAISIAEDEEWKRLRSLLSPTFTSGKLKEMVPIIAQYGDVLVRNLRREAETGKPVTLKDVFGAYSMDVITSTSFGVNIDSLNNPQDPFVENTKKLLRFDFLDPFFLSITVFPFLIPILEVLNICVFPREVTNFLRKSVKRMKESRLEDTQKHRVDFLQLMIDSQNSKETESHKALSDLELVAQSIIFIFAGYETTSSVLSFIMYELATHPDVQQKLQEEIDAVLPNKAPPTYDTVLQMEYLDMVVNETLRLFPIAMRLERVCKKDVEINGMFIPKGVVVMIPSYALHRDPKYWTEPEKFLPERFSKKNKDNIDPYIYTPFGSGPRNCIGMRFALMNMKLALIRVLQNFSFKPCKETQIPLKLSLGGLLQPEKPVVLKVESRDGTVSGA
# Cytochrome P450 2D6, sequence (P10635 whole entry): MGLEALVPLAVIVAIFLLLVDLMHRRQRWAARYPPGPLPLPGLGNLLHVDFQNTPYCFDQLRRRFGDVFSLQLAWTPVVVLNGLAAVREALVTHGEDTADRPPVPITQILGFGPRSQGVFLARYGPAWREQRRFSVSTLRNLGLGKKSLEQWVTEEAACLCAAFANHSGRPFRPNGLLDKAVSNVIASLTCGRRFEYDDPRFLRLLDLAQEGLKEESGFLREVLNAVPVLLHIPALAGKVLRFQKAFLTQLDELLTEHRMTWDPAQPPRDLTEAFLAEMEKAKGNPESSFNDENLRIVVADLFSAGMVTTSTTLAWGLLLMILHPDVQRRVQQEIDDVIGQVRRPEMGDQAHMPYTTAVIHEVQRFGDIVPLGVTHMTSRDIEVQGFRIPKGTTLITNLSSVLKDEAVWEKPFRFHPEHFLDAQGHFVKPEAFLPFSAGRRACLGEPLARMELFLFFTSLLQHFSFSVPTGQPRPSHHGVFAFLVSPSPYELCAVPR
# Retinoid X receptor (Homo sapiens), sequence (P19793 whole entry, looked up): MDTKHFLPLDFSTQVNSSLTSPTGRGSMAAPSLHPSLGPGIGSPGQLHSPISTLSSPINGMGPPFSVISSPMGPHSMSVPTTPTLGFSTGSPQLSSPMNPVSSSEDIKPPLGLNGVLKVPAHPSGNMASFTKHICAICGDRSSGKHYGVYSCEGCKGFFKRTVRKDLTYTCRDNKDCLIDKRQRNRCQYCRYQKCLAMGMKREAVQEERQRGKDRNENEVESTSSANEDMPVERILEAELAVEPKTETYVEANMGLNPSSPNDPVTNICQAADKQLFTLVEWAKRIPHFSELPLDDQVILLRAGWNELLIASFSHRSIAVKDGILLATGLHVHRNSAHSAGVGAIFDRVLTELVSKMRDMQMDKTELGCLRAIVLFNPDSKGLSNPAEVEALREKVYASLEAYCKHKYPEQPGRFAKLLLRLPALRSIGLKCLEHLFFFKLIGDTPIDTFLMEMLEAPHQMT
# Retinoid X receptor (Homo sapiens), sequence (P28702 whole entry, looked up): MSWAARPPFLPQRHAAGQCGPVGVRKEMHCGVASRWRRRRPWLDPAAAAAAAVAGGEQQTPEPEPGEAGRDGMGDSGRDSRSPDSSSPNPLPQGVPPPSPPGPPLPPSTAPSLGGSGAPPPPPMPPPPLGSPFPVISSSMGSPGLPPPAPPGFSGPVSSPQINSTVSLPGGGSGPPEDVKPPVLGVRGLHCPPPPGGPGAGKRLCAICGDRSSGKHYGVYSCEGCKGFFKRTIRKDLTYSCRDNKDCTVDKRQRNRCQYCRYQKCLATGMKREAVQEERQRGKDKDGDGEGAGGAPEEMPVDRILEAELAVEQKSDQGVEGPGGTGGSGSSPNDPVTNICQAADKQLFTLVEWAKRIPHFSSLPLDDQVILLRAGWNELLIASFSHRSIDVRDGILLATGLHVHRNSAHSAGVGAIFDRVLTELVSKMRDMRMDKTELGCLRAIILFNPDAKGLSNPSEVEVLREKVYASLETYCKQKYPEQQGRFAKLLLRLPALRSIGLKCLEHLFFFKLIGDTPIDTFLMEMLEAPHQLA
# Retinoid X receptor (Homo sapiens), sequence (P48443 whole entry, looked up): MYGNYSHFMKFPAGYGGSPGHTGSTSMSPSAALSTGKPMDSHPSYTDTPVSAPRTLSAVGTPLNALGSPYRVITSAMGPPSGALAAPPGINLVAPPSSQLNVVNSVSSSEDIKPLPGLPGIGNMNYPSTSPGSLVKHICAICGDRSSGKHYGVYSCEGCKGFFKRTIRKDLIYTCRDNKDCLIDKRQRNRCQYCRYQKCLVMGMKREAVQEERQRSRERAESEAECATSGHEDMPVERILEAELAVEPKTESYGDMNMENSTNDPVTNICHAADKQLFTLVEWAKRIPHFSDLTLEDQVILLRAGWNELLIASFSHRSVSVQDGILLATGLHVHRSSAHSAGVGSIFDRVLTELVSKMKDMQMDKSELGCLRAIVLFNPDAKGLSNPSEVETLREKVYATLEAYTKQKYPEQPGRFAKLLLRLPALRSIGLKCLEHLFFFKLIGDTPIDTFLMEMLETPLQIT
# Cytochrome P450 2C19, sequence (P33261 whole entry): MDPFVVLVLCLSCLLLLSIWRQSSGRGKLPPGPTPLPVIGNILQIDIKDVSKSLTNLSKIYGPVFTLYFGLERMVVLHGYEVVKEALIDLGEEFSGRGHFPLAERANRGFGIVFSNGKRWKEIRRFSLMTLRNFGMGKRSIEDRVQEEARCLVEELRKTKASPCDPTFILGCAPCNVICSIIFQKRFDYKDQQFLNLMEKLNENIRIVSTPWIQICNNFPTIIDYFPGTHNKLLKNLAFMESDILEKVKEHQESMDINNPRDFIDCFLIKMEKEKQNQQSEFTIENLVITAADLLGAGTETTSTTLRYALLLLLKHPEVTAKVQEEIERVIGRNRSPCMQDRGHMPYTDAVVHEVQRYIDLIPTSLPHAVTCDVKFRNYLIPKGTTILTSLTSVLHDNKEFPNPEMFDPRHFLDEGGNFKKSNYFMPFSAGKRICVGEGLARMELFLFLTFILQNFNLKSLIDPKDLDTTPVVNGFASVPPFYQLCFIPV
# Nuclear receptor subfamily 1 group I member 2, sequence (O75469 whole entry): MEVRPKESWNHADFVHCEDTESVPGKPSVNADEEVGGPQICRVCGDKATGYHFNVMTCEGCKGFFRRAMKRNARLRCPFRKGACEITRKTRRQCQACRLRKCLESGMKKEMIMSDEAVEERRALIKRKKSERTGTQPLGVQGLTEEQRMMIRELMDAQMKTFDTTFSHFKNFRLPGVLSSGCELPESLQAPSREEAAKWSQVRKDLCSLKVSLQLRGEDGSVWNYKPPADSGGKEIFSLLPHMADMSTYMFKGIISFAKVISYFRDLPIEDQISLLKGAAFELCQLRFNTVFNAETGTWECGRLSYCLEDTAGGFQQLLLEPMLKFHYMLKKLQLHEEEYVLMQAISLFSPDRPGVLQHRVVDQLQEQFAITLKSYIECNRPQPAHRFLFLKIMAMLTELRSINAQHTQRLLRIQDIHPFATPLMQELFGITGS
smiles,measurement,setting,value
COC(=O)N(CC(=O)O)Cc1cc(OCc2nc(-c3ccc(Cl)cc3)oc2C)ccc1F,Activity,Mus musculus [1],16%
same,Cmax,[2],1400 nM
same,half-life,[3],1.8 h
same,Activity,Syrian golden hamster [4],74%
same,IC50,Cytochrome P450 2C19,> 150 µM
same,bioavailability,[5],59%
same,EC60,[6],> 50 µM
same,Activity,Rhesus monkey,Non-toxic
same,Tmax,[7],0.25 h
same,half-life,[8],3.3 h
same,IC50,Cytochrome P450 3A4,> 40 µM
same,Activity,Mus musculus [9],58.1%
same,Activity,Mus musculus [10],96%
same,Activity,Syrian golden hamster [11],48%
same,Activity,Syrian golden hamster [12],24%
same,Efficacy,[13],< 15%
same,Activity,Mus musculus [14],74%
same,Activity,Mus musculus [15],109%
same,fraction unbound,[16],0.01
same,IC50,Cytochrome P450 2C9 [17],> 40 µM
same,Activity,Syrian golden hamster [18],50%
same,Activity,Mus musculus [19],23.5%
same,IC50,Cytochrome P450 2C9 [20],> 150 µM
same,IC50,Cytochrome P450 2D6,> 150 µM
same,Activity,Salmonella typhimurium,Non-toxic
same,Vd,[21],2.1 L/kg
same,solubility,[22],367 µg/mL
same,AUC(0-t) at 8 h,[23],7.5 µM·h
same,Activity,Syrian golden hamster [24],67.5%
same,Cmax,[25],1500 nM
same,Activity,Mus musculus [26],14.2%
same,Efficacy,[27],< 15%
same,EC50,Liver X receptor,> 25 µM
same,AUC(0-t) at 8 h,[28],17 µM·h
same,Efficacy,[29],< 15%
same,AUC(0-t) at 8 h,[30],9.4 µM·h
same,AUC(0-t) at 8 h,[31],8.5 µM·h
same,bioavailability,[32],66%
same,Activity,Syrian golden hamster [33],56.8%
same,Activity,Syrian golden hamster [34],85%
same,inhibition,Homo sapiens,14%
